Results taken from patent US20220378707A1, “1-(((2S,3S,4S)-3-ETHYL-4-FLUORO-5-OXOPYRROLIDIN-2-YL)METHOXY)-7-METHOXYISOQUINOLINE-6-CARBOXAMIDE COMBINATIONS AND ORAL DOSAGE FORMS” (Pfizer Inc., priority 2019, published 2022).
“Also recorded” adds a separate entry of the source.

How the values were obtained:
[1] = test system: HDFn+(IL-1β, TNFα, IFNγ, EGF, bFGF and PDGF-BB); experiment: BioMAP HDF3CGF system; assay type: cell-based, human; conditions: for Inhibition of biomarker readouts in the HDF3CGF system: wound healing, Th1-type inflammation, concentrations of FIGS. 12-16
Source text: (§1) The BioMAP systems consist of human primary cell-based systems designed to model different aspects of the human body in an in vitro format. The 12 systems tested characterized the test compounds across a broad set of systems modeling various human disease states. BioMAP systems were constructed with one or more primary cell types from healthy human donors, with stimuli (such as cytokines or growth factors) added to capture relevant signaling networks that naturally occur in human tissue or pathological conditions. Vascular biology was modeled in both a Th1 (3C system) and a Th2 (4H system) inflammatory environment, as well as in a Th1 inflammatory state specific to arterial smooth muscle cells (CASM3C system). Additional systems recapitulated aspects of the systemic immune response that included monocyte-driven Th1 inflammation (LPS system) or T cell stimulation (SAg system), chronic Th1 inflammation driven by macrophage activation (IMphg system) and the T cell-dependent activation of B cells that occurs in germinal centers (BT system). The BE3C system (Th1) and the BF4T system (Th2) represented airway inflammation of the lung, while the MyoF system modeled myofibroblast-lung tissue remodeling. Lastly, skin biology was addressed in the KF3CT system modeled Th1 cutaneous inflammation and the HDF3CGF system modeled wound healing.
(§2) All cells were from a pool of multiple donors (n=2-6), commercially purchased and handled according to the recommendations of the manufacturers. Human blood derived CD14+ monocytes were differentiated into macrophages in vitro before being added to the IMphg system. Abbreviations were used as follows: human umbilical vein endothelial cells (HUVEC), peripheral blood mononuclear cells (PBMC), human neonatal dermal fibroblasts (HDFn), B cell receptor (BCR), T cell receptor (TCR) and toll-like receptor (TLR). Cell types and stimuli used in each system were as follows:
(§3) 3C system [HUVEC+(IL-1β, TNFα and IFNγ)]; 4H system [HUVEC+(IL-4 and histamine)]; LPS system [PBMC and HUVEC+LPS (TLR4 ligand)]; SAg system [PBMC and HUVEC+T cell receptor (TCR) ligands]; BT system [CD19+B cells and PBMC+(α-IgM and TCR ligands)]; BF4T system [bronchial epithelial cells and HDFn+(TNFα and IL-4)]; BE3C system [bronchial epithelial cells+(IL-1p, TNFα and IFNγ)]; CASM3C system [coronary artery smooth muscle cells+(IL-1p, TNFα and IFNγ)]; HDF3CGF system [HDFn+(IL-1β, TNFα, IFNγ, EGF, bFGF and PDGF-BB)]; KF3CT system [keratinocytes and HDFn+(IL-1β, TNFα and IFNγ)]; MyoF system [differentiated lung myofibroblasts+(TNFα and TGFβ)]; and IMphg system [HUVEC and M1 macrophages+Zymosan (TLR2 ligand)].
(§4) Systems were derived from either single cell types or co-culture systems. Adherent cell types were cultured in 96 or 384-well plates until confluence, followed by the addition of PBMC (SAg and LPS systems). […] Test agents were prepared in DMSO (final concentration <0.1%) and were added 1 hour before stimulation, and remained in culture for 24 hours or as otherwise indicated (48-hrs, MyoF system; 72-hrs, BT system (soluble readouts); 168-hrs, BT system (secreted IgG)). […] Soluble factors from supernatants were quantified using either HTRF® detection, bead-based multiplex immunoassay or capture ELISA. Overt adverse effects of test agents on cell proliferation and viability (cytotoxicity) were detected by sulforhodamine B (SRB) staining, for adherent cells, and alamarBlue® reduction for cells in suspension.

[2] = test system: human primary cell-based systems; experiment: BioMAP panel of 12 systems; conditions: for Number of annotated readouts with activity / Overt cytotoxicity on primary human cell types: 12 tissue and disease models; for Immunomodulatory activities: Decreased Activity / Inflammation-related activities: Decreased Activity: PF-06651600 200-5400 nM
Source text: as §1, §2, §3
(§5) Systems were derived from either single cell types or co-culture systems. Adherent cell types were cultured in 96 or 384-well plates until confluence, followed by the addition of PBMC (SAg and LPS systems). The BT system consisted of CD19+B cells co-cultured with PBMC and stimulated with a BCR activator and low levels of TCR stimulation. Test agents were prepared in DMSO (final concentration <0.1%) and were added 1 hour before stimulation, and remained in culture for 24 hours or as otherwise indicated (48-hrs, MyoF system; 72-hrs, BT system (soluble readouts); 168-hrs, BT system (secreted IgG)). Each plate contained drug controls (e.g., legacy control test agent colchicine at 1.1 μM), negative controls (e.g., non-stimulated conditions) and vehicle controls (e.g., 0.1% DMSO) appropriate for each system. Direct ELISA was used to measure biomarker levels of cell-associated and cell membrane targets. Soluble factors from supernatants were quantified using either HTRF® detection, bead-based multiplex immunoassay or capture ELISA. Overt adverse effects of test agents on cell proliferation and viability (cytotoxicity) were detected by sulforhodamine B (SRB) staining, for adherent cells, and alamarBlue® reduction for cells in suspension. […]

[3] = test system: CD19+B cells and PBMC+(α-IgM and TCR ligands); experiment: BioMAP BT system; assay type: cell-based, human; conditions: for Inhibition of biomarker readouts in the BT system / Increased biomarker readouts in the BT system: T cell dependent B cell activation; for Inhibition of biomarker readouts in the BT system: concentrations of FIGS. 12-14; for Increased biomarker readouts in the BT system: tofacitinib 37-1000 nM
Source text: as §1, §2, §3, §5

[4] = test system: PBMC and HUVEC+LPS (TLR4 ligand); experiment: BioMAP LPS system; assay type: cell-based, human; conditions: monocyte-driven Th1 inflammation; for Inhibition of biomarker readouts in the LPS system: concentrations of FIGS. 12-14; for Increased biomarker readouts in the LPS system: tofacitinib 37-1000 nM
Source text: as §1, §2, §3, §5

[5] = test system: HUVEC+(IL-1β, TNFα and IFNγ); experiment: BioMAP 3C system; assay type: cell-based, human; conditions: agent alone; PF-06650833 19, 56, 170, 500 nM; tofacitinib 37, 110, 330, 1000 nM
Source text: (§6) The BioMAP systems consist of human primary cell-based systems designed to model different aspects of the human body in an in vitro format. The 12 systems tested characterized the test compounds across a broad set of systems modeling various human disease states. BioMAP systems were constructed with one or more primary cell types from healthy human donors, with stimuli (such as cytokines or growth factors) added to capture relevant signaling networks that naturally occur in human tissue or pathological conditions. Vascular biology was modeled in both a Th1 (3C system) and a Th2 (4H system) inflammatory environment, as well as in a Th1 inflammatory state specific to arterial smooth muscle cells (CASM3C system). […]
as §4, with “systems.” for “systems. Adherent cell types were cultured in 96 or 384-well plates until confluence, followed by the addition of PBMC (SAg and LPS systems).”

[6] = test system: bronchial epithelial cells and HDFn+(TNFα and IL-4); experiment: BioMAP BF4T system; assay type: cell-based, human; conditions: Th2 airway inflammation; tofacitinib 37-1000 nM
Source text: as §6
as §4, with “systems.” for “systems. Adherent cell types were cultured in 96 or 384-well plates until confluence, followed by the addition of PBMC (SAg and LPS systems).”

[7] = test system: HUVEC+(IL-4 and histamine); experiment: BioMAP 4H system; assay type: cell-based, human; conditions: Th2 vascular inflammation, tofacitinib 37-1000 nM
Source text: as §6
as §4, with “systems.” for “systems. Adherent cell types were cultured in 96 or 384-well plates until confluence, followed by the addition of PBMC (SAg and LPS systems).”

[8] = PF-06650833 19-500 nM, tofacitinib 37-1000 nM
[9] = BioMAP profile, PF-06650833 19-500 nM, tofacitinib 37-1000 nM
[10] = listed as 1-(((2S,3S,4S)-3-Ethyl-4-fluoro-5-oxopyrrolidin-2-yl)methoxy)-7-methoxyisoquinol
[11] = listed as 1-(((2S,3S,4S)-3-ethyl-4-fluoro-5-oxopyrrolidin-2-yl)methoxy)-7-methoxyisoquinol
[12] = BioMAP profile, tofacitinib 37-1000 nM

In the case of `CC[C@@H]1[C@H](F)C(=O)N[C@@H]1COc1nccc2cc(C(N)=O)c(OC)cc12` [PF-06650833, 1-(((2S,3S,4S)-3-Ethyl-4-fluoro-5-oxopyrrolidin-2-yl)methoxy)-7-methoxyisoquinoline-6-carboxamide], the “MIG, Log10 molar ratio in the HDF3CGF system” value ([1]; PF-06650833 at 170 nM alone) is reported as −0.04121, the “Inhibition of biomarker readouts in the HDF3CGF system” value (“Inhibition … in the HDF3CGF system” for short) [1] is reported as “modest inhibition VCAM-1, Col-III, and TIMP2” and the “Number of annotated readouts with activity” value [2, 8] is reported as 14. For the same compound, the “Overt cytotoxicity on primary human cell types” value [2, 8] was “no evidence of overt cytotoxicity”, the “Immunomodulatory activities: Decreased Activity” value [2, 9] was “decreased CD40, CD69, M-CSF, secreted IL-17F; also recorded: CD40, CD69, M-CSF, *sIL-17F” and the “Inflammation-related activities: Decreased Activity” value [2, 9] was “decreased E-selectin, MCP-1, VCAM-1, IL-6, IL-8, IL-1α, secreted TNFα, secreted PGE2; also recorded: MCP-1, VCAM-1, E-selectin, IL-6, IL-8, IL-1α, *sTNFα, *sPGE2”. The “Additional activities in the BioMAP systems” value ([2]; PF-06650833 19-500 nM) was “modest effects in BT and CASM3C systems and concentration-related decreases in secreted IL-17F and inhibition of secreted TNFα and IL-6 at the higher two concentrations only”, the “Antiproliferative effect on primary cell types” value [2, 8] was “no antiproliferative effect” and the “Inhibition of biomarker readouts in the BT system” value (shortened to “Inhibition … in the BT system”) [3, 10] was “little effect; also recorded: modest inhibition of IL-6 and sIL-17F”. For the same compound, the “Inhibition … in the BT system” value [3, 11] was “sIL-17F and sTNFα”, the “Inhibition of biomarker readouts in the LPS system” value [4, 10] was “primarily active across all tested concentrations; also recorded: MCP-1, VCAM-1, E-selectin, IL-8, IL-1a, sTNFa, sPGE2, CD40, CD69, M-CSF, and TF; also recorded: strongly inhibited activation responses” and the “Inhibition of biomarker readouts in the LPS system” value [4, 11] was “PGE2, TNFα, IL-1α, and MCP1; also recorded: strongly and selectively inhibited monocyte activation responses; also recorded: MCP-1, VCAM-1, CD40, E-selectin, CD69, IL-8, IL-1α, M-CSF, sPGE2, and sTNFα”. The “Activity in the 3C system” value [5] was “no activity”.

In the case of `C[C@@H]1CCN(C(=O)CC#N)C[C@@H]1N(C)c1ncnc2[nH]ccc12` [tofacitinib, 3-((3R,4R)-4-Methyl-3-(methyl(7H-pyrrolo[2,3-d]pyrimidin-4-yl)amino)piperidin-1-yl)-3-oxopropanenitrile], the “Inhibition … in the HDF3CGF system” value [1] is reported as “ITAC and VCAM-1”, the “Inhibition … in the HDF3CGF system” value ([1]; listed as Tofacitinib) is reported as “VCAM-1 and ITAC” and the “Increased biomarker readouts in the BF4T system” value [6] is reported as “MMP9”. The “Inhibition of biomarker readouts in the BF4T system” value [6] was “active over all tested concentrations; also recorded: Eot3, and VCAM-1”, the “Number of annotated readouts with activity” value [2, 8] was 21 and the “Overt cytotoxicity on primary human cell types” value [2, 8] was “no evidence of overt cytotoxicity”. The “Immunomodulatory activities: Decreased Activity” value [2, 9] was “decreased secreted IgG, CD38, secreted IL-6, CD69, secreted IL-17F; also recorded: *sIL-6, *sIL-17F; also recorded: CD38, CD69, *sIgG,”, the “Inflammation-related activities: Decreased Activity” value [2, 9] was “decreased Eotaxin 3, MCP-1, VCAM-1, I-TAC, MIG, P-selectin; also recorded: MCP-1, Eot3,; also recorded: ITAC, MIG” and the “Immunomodulatory activities: Increased Activity” value [2, 12] was “increased secreted IL-2; also recorded: *sIL-2”. For the same compound, the “Inflammation-related activities: Increased Activity” value [2, 12] was “increased IL-1α, secreted PGE2; also recorded: *sPGE2”, the “Inflammation-related activities: Modulated Activity” value [2, 12] was “modulated secreted TNFα; also recorded: *sTNFα” and the “Tissue remodeling activities: Increased Activity” value [2, 12] was “increased MMP-9 and MMP9”. The “Antiproliferative effect on primary cell types” value [2, 8] was “selectively antiproliferative to T cells”, the “Cytostatic effect on B cells, vascular cell types or fibroblasts” value ([2]; tofacitinib 37-1000 nM) was “no cytostatic effect” and the “Inhibition … in the BT system” value [3] was “sIgG, sIL-17F, sIL-2, IL-6, and sTNFα; also recorded: strongly inhibited responses”. The “Inhibition … in the BT system” value ([3]; listed as Tofacitinib) was “active over all tested concentrations; also recorded: sIgG, sIL-17F, sIL-6, and sTNFα”, the “Increased biomarker readouts in the BT system” value [3] was “increase in secreted IL-2” and the “Increased biomarker readouts in the BT system” value ([3]; listed as Tofacitinib) was “sIL-2”. The “B cell proliferation in the BT system” value ([3]; concentrations of FIGS. 13-14) was “B cell anti-proliferative activity”, the “Increased biomarker readouts in the LPS system” value [4] was “increased levels of IL-1α, secreted PGE2 and secreted TNFα; also recorded: stimulated production of IL-1α, sPGE2 and sTNFα” and the “Increased biomarker readouts in the LPS system” value ([4]; listed as Tofacitinib) was “IL-1α, sPEG2, and sTNFα”. The “Activity in the 3C system” value [5] was “no activity”, the “Inhibition of biomarker readouts in the 4H system” value [7] was “MCP-1 and Eto3 and VCAM-1 and P-selectin” and the “Inhibition of biomarker readouts in the 4H system” value ([7]; listed as Tofacitinib) was “active over all tested concentrations; also recorded: MCP-1, Eot3, VCAM-1, P-selectin”.
